Where a SMILES comes first, the peptide text is derived from it. The star is where a group is joined. Cbz = O=C(OCc1ccccc1)*
How the values were obtained:
p53 [1] = experiment: Proteasome inhibitor block of dicoumarol-induced p53 elimination in HCT116 cells; format: cell-based, human; conditions: HCT116, 4 hrs with dicoumarol; 100 micromolar MG 132 or 40 micromolar lactacystin
Experimental: FIGS. 2a-b illustrate that proteasomal degradation is responsible for the dicoumarol-induced p53 decrease in cells. […] Immunoblots were carried out as in FIG. 1.
Cell extracts were prepared by lysis of PBS-washed cells in RIPA lysis buffer [150 mM NaCl, 1% NP-40 (vol/vol), 0.5% AB-deoxycholate (DOC vol/vol), 0.1% SDS (vol/vol), 50 mM Tris-Hcl pH 8, 1 mM dithiotireitol (DTT) and 1 micogram/ml each of leupeptin, aprotinin, pepstatin (Sigma cocktail)]. The insoluble pellet was discarded and protein concentration was determined using Bradford reagent (BioRad). Equal amounts of protein were mixed with Laemmli sample buffer (4% SDS, 20% glycerol, 10% 2-mercaptoeftanol and 0.125M Tris-Hcl), heated at 95° C. for 5 min and loaded on an 8% polyacrylamide-SDS gel. Following electophoresis, proteins were transferred to cellulose nitrate 0.45 micrometer membranes (Schleicher & Schuell, Dassel, Germany). Loading equivalence and transfer efficiency were monitored by Ponceau S staining and the membranes were then incubated with appropriate antibodies to proteins of interest followed by horse-radish peroxidase conjugated anti-IgG antibodies. […]
It is well documented that p53 accumulation is determined by the rate of its proteasomal degradation (reviewed in refs. 1,2).

p53 [2] = experiment: Immunoblot of p53 accumulation in 7-M12 myeloid leukemic cells; format: cell-based; conditions: 7-M12 cells; for accumulation of p53 following γ-irradiation or doxorubicin treatment: 2 h, 100 μM dicoumarol or 5 μM radicicol
Experimental: Immunoblot analysis was carried out using PAb 240 monoclonal anti p53 antibody and rabbit anti IκB FIG. 13a is an immunoblot of extracts from 7-M12 cells which were either not treated (none), γ-irradiated at 0.4 Gy or treated with 2.1 μM doxorubicin (Dox.). […] Cell extracts were prepared after 2 h and apoptosis was determined after 5 h.

p53 [3] = experiment: Immunoblot of p53 level in M1-t-p53 cells; format: cell-based, mouse
Experimental: Immunoblot analysis was carried out using Pab 240 monoclonal anti p53 antibody. The blots were then stripped and re-probed with anti I-kappa-B and anti beta-tubulin antibody.
Immunoblot analysis was carried out using Pab 240 monoclonal anti p53 antibody and hamster anti mouse Bcl-2. FIG. 11a is an immunoblot of cell extracts from M1-t-p53 myeloid leukemic cells cultured for 6h at 32° C. or 37° C. without or with different concentrations of radicicol. Antibodies are indicated at left. FIG. 11b is an immunoblot of cell extracts from cells cultured at 32° C. for 6 or 2 h without (−) or with (+) 1 μM radicicol. Cells were also preincubated for 4 h at 32° C. and then cultured with 1 μM radicicol or 1 μM geldanamycin (geldan.) for 2 h (2 h*).
(§1) The cell lines used were: HCT116 human colon carcinoma cells, HCT116 HA-NQO1 over-expressing cells (45), p53 null HCT116 cells (Bunz, F., Dutiaux, A., Lengauer, C., Waldman, T., Zhou, S., Brown, J. P., Sedivy, J. M., Kinzler, K. W. & Vogelstein, B. (1998) Science 282, 1497-1501.), COS 1 monkey kidney cells, normal thymocytes obtained from 2.5 month old Balb/C mice and M1-t-p53 mouse myeloid leukemic cells that express a temperature-sensitive mutant p53 [Val-135] protein (Yonish-Rouach, E., Resnitzky, D., Lotem, J., Sachs, L., Kimchi, A. & Oren, M. (1991) Nature 352, 345-347).
(§2) The p53 in M1-t-p53 cells behaves like a tumor-suppressing wild-type p53 at 32° C. and like a mutant p53 at 37° C. (24). HCT116 and COS 1 cells were grown in Dulbecco's modified Eagle's medium (DMEM) supplemented with 10% fetal bovine serum (FBS), […] penicillin, and 100 µg/ml streptomycin and cultured at 37° C. in a humidified incubator with 5.6% C02. Normal thymocytes and M1-t-p53 cells were grown in DMEM supplemented with 10% heat inactivated (56° C., 30 min) horse serum and cultured at 37° C. in an incubator with 10% […].
(§3) Cell extracts were prepared by lysis of PBS-washed cells in RIPA lysis buffer [150 mM NaCl, 1% NP-40 (vol/vol), 0.5% AB-deoxycholate (DOC vol/vol), 0.1% SDS (vol/vol), 50 mM Tris-Hcl pH 8, 1 mM dithiotireitol (DTT) and 1 micogram/ml each of leupeptin, aprotinin, pepstatin (Sigma cocktail)]. The insoluble pellet was discarded and protein concentration was determined using Bradford reagent (BioRad). Equal amounts of protein were mixed with Laemmli sample buffer (4% SDS, 20% glycerol, 10% 2-mercaptoeftanol and 0.125M Tris-Hcl), heated at 95° C. for 5 min and loaded on an 8% polyacrylamide-SDS gel. Following electophoresis, proteins were transferred to cellulose nitrate 0.45 micrometer membranes (Schleicher & Schuell, Dassel, Germany). Loading equivalence and transfer efficiency were monitored by Ponceau S staining and the membranes were then incubated with appropriate antibodies to proteins of interest followed by horse-radish peroxidase conjugated anti-IgG antibodies. Signals were developed using Super Signal (Pierce Poxkford, USA) at 20° C. for 5 min and the membranes were then exposed to X-ray film (Fuji Tokyo, Japan) for an appropriate time and developed. Membranes were stripped using 50 mM citric acid before using a different primary antibody. The antibodies used were; Monoclonal anti human p53 (Pab 1801) (26), monoclonal anti mouse and human p53 (Pab240), monoclonal anti I-kappa-B (Santa Cruz Biotechnology, Santa Cruz, Calif., USA), monoclonal anti beta-tubulin and anti HA (Sigma Chemical, St. Louis, Mo.).
(§4) These cells are viable and proliferate at 37° C. when the p53 behaves like a mutant form, but undergo apoptosis at 32° C. when the p53 behaves like wild-type (3).
Because interleukin 6 (IL-6) and the calcium mobilizing compound thapsigargin (TG) are known to be efficient anti-apoptotic agents in M1-t-p53 cells (3, 31), the effect of these compounds on p53 stability was also investigated. […] (FIG. 6a).

[4] = test system: M1-t-p53 myeloid leukemic cells; experiment: cells
Experimental: Cell viability was determined 23 h after culture at 32° C.
as §1, §2
(§5) Apoptosis in normal thymocytes was induced by gamma irradiation 4 Gy (Co^60 source 0.63 Gy/min) and in M1-t-p53 cells by culture at 32° C. The percentage of apoptotic thymocytes was determined on May-Grünwald-Giemsa-stained cytospin preparations by counting 400 cells 5 hrs post gamma-irradiation. Apoptotic cells were scored by their smaller size, condensed chromatin, and fragmented nuclei compared with non-apoptotic cells. Analysis of DNA fragmentation during apoptosis in thymocytes was performed by DNA agarose gel electophoresis as described (27). Apoptotic M1-t-p53 cells undergo secondary changes including uptake of trypan-blue (28). The percent of viable cells (non apoptotic and not stained with trypan-blue) was determined by counting 400 cells in a hemocytometer after 23 hrs at 32° C.
as §4

thymocytes = experiment: Dexamethasone induced apoptosis in thymocytes; format: cell-based, mouse; conditions: for apoptotic cells: dexamethasone treated thymocytes, from 42±3% without inhibitor
Description: Accumulation of p53 in γ-irradiated or doxorubicin treated 7-M12 myeloid leukemic cells (28) induces expression of mdm2 and waf-1.

p53 [5] = experiment: Immunoblot of p53 level in gamma irradiated normal thymocytes; format: cell-based, mouse; conditions: for wild-type p53 accumulation: γ-irradiated normal thymocytes, 2 h, 200 μM dicoumarol, 5 μM radicicol or 5 μM geldanamycin
Experimental: Cell extracts were prepared after 2 h and apoptosis was determined after 5 h.

normal thymocytes = experiment: Apoptosis in gamma irradiated normal thymocytes; format: cell-based, mouse
Description: as §1, §5

p53 [6] = experiment: Dicoumarol-induced p53 degradation in transfected p53 null HCT116 cells; format: cell-based, human; conditions: 5 h
Experimental: Antibodies used to probe and reprobe the blots are indicated at the left. Stripping and reprobing was as for FIGS. 8 and 9.
Transfection: Cells were seeded at 60% confluence in 6-well plates 16 h before transfection with the desired plasmids. Transfections were carried out by the calcium phosphate method followed by a 10% glycerol shock for 30 seconds, 7 h post transfection. The exact amount of plasmid used in each experiment is indicated in the corresponding figure legend. Whenever needed an empty vector was used to maintain a constant amount of 5 μg total DNA in each transfection mix. Cell extracts were generally prepared 24 h after transfection.
as §3, with “The antibodies used were; Monoclonal anti human p53 (Pab 1801) (26), monoclonal anti mouse and human p53 (Pab240), monoclonal anti I-kappa-B (Santa Cruz Biotechnology, Santa Cruz, Calif., USA), monoclonal anti beta-tubulin and anti HA (Sigma Chemical, St. Louis, Mo.).” left out

p53 [7] = experiment: Immunoblot of p53 level in HCT116 cells treated with dicoumarol; format: cell-based, human; conditions: for p53 level: HCT116 cells, 400 micromolar dicoumarol; for accumulation of p53 upon γ-irradiation: HCT116 γ-irradiated at 6 Gy, 4 hrs
Experimental: Protein levels of each lane probed were calibrated by probing with monoclonal anti beta-tubulin antibody. Dic—Dicoumarol.
as §3
Blots were stripped and re-probed with monoclonal anti beta-tubulin antibody as a control for equal protein loading in each lane.
Since it is known that irradiation cause accumulation of p53 within cells, an additional event was conducted on irradiated cells. […] As expected, p53 accumulated upon γ-irradiation (compare FIG. 1b lanes 1 and 2).

p53 [8] = experiment: Immunoblot of p53 level in COS 1 cells expressing SV40 large T antigen; format: cell-based, monkey; conditions: COS 1 cells gamma irradiated at 6 Gy, up to 400 micromolar, 4 hrs
Experimental: Cell extracts were prepared by lysis of PBS-washed cells in RIPA lysis buffer [150 mM NaCl, 1% NP-40 (vol/vol), 0.5% AB-deoxycholate (DOC vol/vol), 0.1% SDS (vol/vol), 50 mM Tris-Hcl pH 8, 1 mM dithiotireitol (DTT) and 1 micogram/ml each of leupeptin, aprotinin, pepstatin (Sigma cocktail)]. The insoluble pellet was discarded and protein concentration was determined using Bradford reagent (BioRad). Equal amounts of protein were mixed with Laemmli sample buffer (4% SDS, 20% glycerol, 10% 2-mercaptoeftanol and 0.125M Tris-Hcl), heated at 95° C. for 5 min and loaded on an 8% polyacrylamide-SDS gel. Following electophoresis, proteins were transferred to cellulose nitrate 0.45 micrometer membranes (Schleicher & Schuell, Dassel, Germany). Loading equivalence and transfer efficiency were monitored by Ponceau S staining and the membranes were then incubated with appropriate antibodies to proteins of interest followed by horse-radish peroxidase conjugated anti-IgG antibodies. Signals were developed using Super Signal (Pierce Poxkford, USA) at 20° C. for 5 min and the membranes were then exposed to X-ray film (Fuji Tokyo, Japan) for an appropriate time and developed. Membranes were stripped using 50 mM citric acid before using a different primary antibody. […]

[9] = Mus musculus, 23 h, read-out: cell viability
[10] = 32° C., 6 hrs, 10 nanomolar TG or 50 ng/ml IL-6

Molecule: CC(=O)N[C@@H](CSC(=O)[C@]1([C@@H](O)C(C)C)NC(=O)[C@H](C)[C@@H]1O)C(=O)O [lactacystin]
- block of dicoumarol-induced p53 elimination (p53 [1]): completely blocked

Molecule: C[C@@H]1C[C@H]2O[C@@H]2/C=C\C=C\C(=O)Cc2c(Cl)c(O)cc(O)c2C(=O)O1 [radicicol]
- inhibition of p53 accumulation relative to dicoumarol (p53 [2]; 5 μM radicicol versus 100 μM dicoumarol): stronger effect
- accumulation of p53 following γ-irradiation or doxorubicin treatment (p53 [2]): inhibited
- p53 level (p53 [3]; 32° C., 2 h, 1 μM, also after 4 h preincubation at 32° C.): decrease in p53 level
- level of p53 in its wild-type form (p53 [3]; 32° C., 6 h incubation): strong decrease in the level of p53
- level of p53 in its mutant form (p53 [3]; 37° C., 6 h incubation): strong decrease in the level of p53
- level of Bcl-2 (p53 [3]; 6 h incubation, same conditions): no change
- suppression of wild-type p53 induced apoptosis ([4]; M1-t-p53 cells cultured at 32° C., 23 h): strongly suppressed
- viability at 0.1 µM [4, 9]: 90 ± 4%
- apoptotic cells (thymocytes): 5±2%
- suppression of dexamethasone induced apoptosis (thymocytes; thymocytes): strongly suppressed
- wild-type p53 accumulation (p53 [5]): only a weak inhibition

Molecule: C/C=C(/C)C(=O)O[C@H]1C(C)=C2[C@H]([C@@H]1OC(=O)CCCCCCC)[C@@](C)(OC(C)=O)C[C@H](OC(=O)CCC)[C@@]1(O)[C@H]2OC(=O)[C@@]1(C)O [TG, thapsigargin]
- p53 level (p53 [3]; [10]): did not cause a reduction in p53 level

Molecule: COC1=C2C[C@@H](C)C[C@H](OC)[C@H](O)[C@@H](C)/C=C(\C)[C@H](OC(N)=O)[C@@H](OC)/C=C\C=C(/C)C(=O)NC(=CC1=O)C2=O [geldanamycin]
- viability at 0.1 µM [4, 9]: 90 ± 4%
- apoptotic cells (thymocytes): 5±2%

Molecule: O=c1oc2ccccc2c(O)c1Cc1c(O)c2ccccc2oc1=O [dicoumarol, 13-3′-methylene bis (4-hydroxycoumarin)]
- accumulation of p53 following γ-irradiation or doxorubicin treatment (p53 [2]): inhibited
- level of I-kappa-B (p53 [3]; 32° C., 6 hrs, 100 micromolar): did not affect
- p53 level (p53 [3]; 32° C., 16 hrs, 75 or 100 micromolar dicoumarol): reduced
- degradation of I-kappa-B or beta-tubulin (p53 [3]; 37° C., 6 hrs, 100 micromolar): not of I-kappa-B or beta-tubulin
- degradation of mutant p53 (p53 [3]; 37° C., 6 hrs, 100 micromolar): induce degradation of p53
- cell survival compared to cells without dicoumarol ([4]; M1-t-p53 cells, 32° C., 23 hrs, 75 or 100 micromolar): increase in cell survival
- viability at 75 µM ([4]; Mus musculus, read-out: cell viability): 52 ± 4%
- induction of apoptosis (morphology and DNA fragmentation) (normal thymocytes; 4 Gy gamma irradiated thymocytes, 100 and 200 micromolar, 5 hrs, dose dependent): inhibited induction of apoptosis
- inhibition of apoptosis (normal thymocytes; 4 Gy gamma irradiated thymocytes, 200 micromolar): Complete inhibition of apoptosis
- induction of apoptosis (normal thymocytes; γ-irradiated normal thymocytes, 5 h, 200 μM dicoumarol or 5 μM hsp90 inhibitor): completely inhibited
- level of p53 (p53 [5]; 4 Gy gamma irradiated thymocytes, 100 and 200 micromolar, 5 hrs): decrease in the level of p53
- wild-type p53 accumulation (p53 [5]): completely inhibited
- dicoumarol induced p53 degradation (p53 [6]; p53 null HCT116 co-transfected with p53 and LT, 300 μM): resistant to dicoumarol induced p53 degradation
- dicoumarol induced p53 degradation (p53 [6]; p53 null HCT116 transfected only with p53, 300 μM): sensitive to dicoumarol induced p53 degradation
- levels of Mdm-2 and LT (p53 [6]; transfected p53 null HCT116, 300 μM): not affected
- level of beta-tubulin (p53 [7]; HCT116, same conditions as the p53 blots (specificity control)): unaffected
- p53 level (p53 [7]; 90 min): significant reduction in p53 level
- p53 level (p53 [7]; 180 min): almost complete elimination of p53
- accumulation of p53 upon γ-irradiation (p53 [7]; 200 micromolar): reduced
- accumulation of p53 upon γ-irradiation (p53 [7]; 400 micromolar): further reduced
- p53 level (p53 [8]): not reduced

Molecule: CC(C)C[C@@H](C=O)NC(=O)[C@H](CC(C)C)NC(=O)[C@H](CC(C)C)NC(=O)OCc1ccccc1 [MG132] (Cbz-Leu-Leu-Leu-aldehyde)
- block of dicoumarol-induced p53 elimination (p53 [1]): completely blocked

B1: IL6: interleukin 6, anti-apoptotic agent in M1-t-p53 cells (protein, UniProt P08505 25-211, looked up)
Interleukin-6: FPTSQVRRGDFTEDTTPNRPVYTTSQVGGLITHVLWEIVEMRKELCNGNSDCMNNDDALAENNLKLPEIQRNDGCYQTGYNQEICLLKISSGLLEYHSYLEYMKNNLKDNKKDKARVLQRDTETLIHIFNQEVKDLHKIVLPTPISNALLTDKLESQKEWLRTKTIQFILKSLEEFLKVTLRSTRQT
- p53 level (p53 [3]; [10]): did not cause a reduction in p53 level
